In patent publication US10414811B2, “Protease-resistant lipidated GLP-1 analogs” (MEDIMMUNE LIMITED, priority 2015, dated 2019) one finds EC50 data, which are given here for five compounds.

Common to all, as to assay type: cell-based
Test [1] has as its target T1, human glucose-dependent insulinotropic peptide receptor (GIPR) (Homo sapiens, UniProt P48546).
T1 construct: expressed in transfected cells
T1 sequence (P48546 22-466): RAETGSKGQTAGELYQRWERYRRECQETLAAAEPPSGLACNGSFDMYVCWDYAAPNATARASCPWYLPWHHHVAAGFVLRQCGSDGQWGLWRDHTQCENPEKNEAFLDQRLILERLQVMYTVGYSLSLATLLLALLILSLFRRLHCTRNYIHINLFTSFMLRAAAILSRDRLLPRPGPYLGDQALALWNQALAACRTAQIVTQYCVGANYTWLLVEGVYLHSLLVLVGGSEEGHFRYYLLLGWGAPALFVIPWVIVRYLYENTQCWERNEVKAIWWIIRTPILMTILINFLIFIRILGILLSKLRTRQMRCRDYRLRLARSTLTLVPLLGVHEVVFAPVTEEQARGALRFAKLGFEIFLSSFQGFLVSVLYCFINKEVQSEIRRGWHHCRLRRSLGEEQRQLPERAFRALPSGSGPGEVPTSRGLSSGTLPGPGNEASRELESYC
Briefly: cAMP assay, human GIPR cells. The following applies: cAMP assay. The essentials: (§1)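 Peptide-stimulated cAMP measured by two-step HTRF after a 30 min room-temperature incubation with receptor-expressing cells (hGLP-1R, hGIPR at 1×10^5 cells/ml; hGCGR at 2×10^5 cells/ml). Duplicate dilutions; EC50 from 4-parameter logistic fit of % Delta F.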

The target of test [2] is T2, human GLP-1 receptor (GLP-1R) (Homo sapiens, UniProt P43220).
T2 construct: expressed in transfected cells
T2 sequence (P43220 24-463): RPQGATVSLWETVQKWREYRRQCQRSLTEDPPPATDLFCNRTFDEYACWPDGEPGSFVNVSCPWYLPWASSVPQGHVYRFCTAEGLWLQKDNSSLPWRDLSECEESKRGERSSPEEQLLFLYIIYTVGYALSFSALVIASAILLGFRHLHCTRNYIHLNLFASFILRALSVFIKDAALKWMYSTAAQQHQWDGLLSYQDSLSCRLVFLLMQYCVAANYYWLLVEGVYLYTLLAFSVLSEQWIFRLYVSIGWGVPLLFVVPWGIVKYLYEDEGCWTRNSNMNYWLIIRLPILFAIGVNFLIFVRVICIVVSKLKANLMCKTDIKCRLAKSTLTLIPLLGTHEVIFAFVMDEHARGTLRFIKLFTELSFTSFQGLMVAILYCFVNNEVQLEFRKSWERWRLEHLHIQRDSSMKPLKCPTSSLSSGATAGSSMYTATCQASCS
Briefly: cAMP assay, human GLP-1R cells. The essentials:
as §1

Test [3] deals with T3, human glucagon receptor (GCGR) (Homo sapiens, UniProt P47871).
T3 construct: expressed in transfected cells
T3 sequence (P47871 26-477): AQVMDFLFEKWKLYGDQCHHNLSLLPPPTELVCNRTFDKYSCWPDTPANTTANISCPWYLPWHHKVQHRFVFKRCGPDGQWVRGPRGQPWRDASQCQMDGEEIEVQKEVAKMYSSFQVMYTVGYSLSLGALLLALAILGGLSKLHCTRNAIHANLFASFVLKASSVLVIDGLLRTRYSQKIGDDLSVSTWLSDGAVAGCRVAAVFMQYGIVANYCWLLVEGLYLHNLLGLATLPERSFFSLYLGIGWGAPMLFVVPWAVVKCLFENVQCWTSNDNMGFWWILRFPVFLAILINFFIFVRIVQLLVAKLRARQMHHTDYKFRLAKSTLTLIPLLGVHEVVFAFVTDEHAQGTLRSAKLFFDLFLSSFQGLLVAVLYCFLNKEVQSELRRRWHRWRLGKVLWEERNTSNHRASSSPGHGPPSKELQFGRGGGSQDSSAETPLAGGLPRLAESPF
The experiment in a line: cAMP assay, human GCGR cells. The following applies: cAMP assay. The essentials: as §1
For orientation: cAMP levels reflect the balance of adenylyl cyclase and phosphodiesterase activity.

The mark [4] stands for this setting: first determination (n1), read-out: Primary assay EC50 GIP-R (n1).
Where [5] appears, read: second determination (n2), read-out: Primary assay EC50 GIP-R (n2).
The mark [6] stands for this setting: cAMP assay, first determination (n1), read-out: Primary assay EC50 GLP-1R n1.
[7] abbreviates: cAMP assay, second determination (n2), read-out: Primary assay EC50 GLP-1R n2.
Where [8] appears, read: mean of n1 and n2, read-out: Mean pM GLP-1R.
[9] abbreviates: first determination (n1), read-out: Primary assay EC50 Gluc-R (n1).
[10] abbreviates: second determination (n2), read-out: Primary assay EC50 Gluc-R (n2).

Molecules are shown by their SMILES. Read-outs that look alike come from different tables or passages of the source. Numbered stars: 1 amine (or outer) side, 2 acyl side, 3 side chain; on linkers, the order of the positions; unused ones are H or OH. Square brackets hold non-standard residues; d marks the D form. Side chains are listed from the residue outwards. Peptide text beside a SMILES is read from it. * marks the point of attachment. γGlu = O=C(O)[C@H](CCC(=O)[*:2])N[*:1]; Palmitoyl = CCCCCCCCCCCCCCCC(=O)*; αMeF = C[C@](N)(Cc1ccccc1)C(=O)O; αMeK = C[C@](N)(CCCCN)C(=O)O; αMeS = C[C@](N)(CO)C(=O)O; Aib = CC(C)(N)C(=O)O Where only a bound is given, the exact number is not on record here.

In the case of `CCCCCCCCCCCCCCCC(=O)N[C@@H](CCC(=O)NCCCC[C@H](NC(=O)[C@H](C)NC(=O)[C@H](C)NC(=O)[C@H](CCC(=O)O)NC(=O)CNC(=O)[C@H](CCC(=O)O)NC(=O)[C@H](CC(C)C)NC(=O)[C@](C)(Cc1ccccc1)NC(=O)[C@H](CO)NC(=O)[C@](C)(CO)NC(=O)[C@@H](NC(=O)[C@H](CC(=O)O)NC(=O)[C@H](CC(=O)O)NC(=O)[C@@H](NC(=O)[C@](C)(Cc1ccccc1)NC(=O)[C@H](CO)NC(=O)CNC(=O)[C@H](CCC(=O)O)NC(=O)C(C)(C)NC(=O)[C@@H](N)Cc1c[nH]cn1)[C@@H](C)O)C(C)C)C(=O)N[C@@H](CCC(=O)O)C(=O)N[C@@](C)(Cc1ccccc1)C(=O)N[C@H](C(=O)N[C@@H](C)C(=O)N[C@@](C)(Cc1ccccc1)C(=O)N[C@H](C(=O)N[C@H](C(=O)N[C@@](C)(CCCCN)C(=O)NCC(=O)NCC(N)=O)C(C)C)C(C)C)[C@@H](C)CC)C(=O)O` [compound 37] (H-H[Aib]EGS[αMeF]TDDV[αMeS]S[αMeF]LEGEAAK([γGlu-Palmitoyl])E[αMeF]IA[αMeF]VV[αMeK]GG-NH2), the EC50 in test [1] (setting [4]) was at least 92 nM; in test [1] (setting [5]), at least 28 nM; in test [2] (setting [6]) it was 7300 pM; in test [2] (setting [7]) it was 1700 pM; in test [2] (setting [8]), 4500 pM; in test [3] (setting [9]) it was at least 92 nM. Moreover, in test [3] (setting [10]), the EC50 is at least 28 nM.
Consider `CC[C@H](C)[C@H](NC(=O)[C@](C)(Cc1ccccc1)NC(=O)[C@H](CCC(=O)O)NC(=O)[C@H](CCCCN)NC(=O)[C@H](C)NC(=O)[C@H](C)NC(=O)[C@H](CCC(=O)O)NC(=O)CNC(=O)[C@H](CCC(=O)O)NC(=O)[C@H](CC(C)C)NC(=O)[C@](C)(Cc1ccccc1)NC(=O)[C@H](CO)NC(=O)[C@H](CO)NC(=O)[C@@H](NC(=O)[C@H](CC(=O)O)NC(=O)[C@H](CO)NC(=O)[C@@H](NC(=O)[C@](C)(Cc1ccccc1)NC(=O)[C@H](CO)NC(=O)CNC(=O)[C@H](CCC(=O)O)NC(=O)C(C)(C)NC(=O)[C@@H](N)Cc1c[nH]cn1)[C@@H](C)O)C(C)C)C(=O)N[C@@H](C)C(=O)N[C@@](C)(Cc1ccccc1)C(=O)N[C@H](C(=O)N[C@H](C(=O)N[C@@H](CCCCN)C(=O)NCC(=O)NCC(=O)N[C@@H](CCCCNC(=O)COCCOCCNC(=O)COCCOCCNC(=O)CC[C@H](NC(=O)CCCCCCCCCCCCCCCCC(=O)O)C(=O)O)C(N)=O)C(C)C)C(C)C` [compound 38], for which the EC50 turned out to be 25 nM in test [1] (setting [4]); 25 nM in test [1] (setting [5]); 62 pM in test [2] (setting [6]); 82 pM in test [2] (setting [7]); 72 pM in test [2] (setting [8]); 25 nM in test [3] (setting [9]). The EC50 in test [3] (setting [10]) amounted to 25 nM.
Regarding `CCCCCCCCCCCCCCCC(=O)N[C@@H](CCC(=O)NCCCC[C@H](NC(=O)CNC(=O)CNC(=O)[C@H](CCCCN)NC(=O)[C@@H](NC(=O)[C@@H](NC(=O)[C@](C)(Cc1ccccc1)NC(=O)[C@H](C)NC(=O)[C@@H](NC(=O)[C@](C)(Cc1ccccc1)NC(=O)[C@H](CCC(=O)O)NC(=O)[C@H](CCCCN)NC(=O)[C@H](C)NC(=O)[C@H](C)NC(=O)[C@H](CCC(=O)O)NC(=O)CNC(=O)[C@H](CCC(=O)O)NC(=O)[C@H](CC(C)C)NC(=O)[C@](C)(Cc1ccccc1)NC(=O)[C@H](CO)NC(=O)[C@H](CO)NC(=O)[C@@H](NC(=O)[C@H](CC(=O)O)NC(=O)[C@H](CO)NC(=O)[C@@H](NC(=O)[C@](C)(Cc1ccccc1)NC(=O)[C@H](CO)NC(=O)CNC(=O)[C@H](CCC(=O)O)NC(=O)C(C)(C)NC(=O)[C@@H](N)Cc1c[nH]cn1)[C@@H](C)O)C(C)C)[C@@H](C)CC)C(C)C)C(C)C)C(N)=O)C(=O)O` [compound 39] (H-H[Aib]EGS[αMeF]TSDVSS[αMeF]LEGEAAKE[αMeF]IA[αMeF]VVKGGK([γGlu-Palmitoyl])-NH2; N-terminus assumed), the EC50 was at least 27 nM in test [1] (setting [4]); at least 27 nM in test [1] (setting [5]); 33 pM in test [2] (setting [6]); 33 pM in test [2] (setting [7]); 33 pM in test [2] (setting [8]); at least 27 nM in test [3] (setting [9]). Further, the EC50 in test [3] (setting [10]) was at least 27 nM.
On to `CC[C@H](C)[C@H](NC(=O)[C@](C)(Cc1ccccc1)NC(=O)[C@H](CCC(=O)O)NC(=O)[C@H](CCCCNC(=O)COCCOCCNC(=O)COCCOCCNC(=O)CC[C@H](NC(=O)CCCCCCCCCCCCCCCCC(=O)O)C(=O)O)NC(=O)[C@H](C)NC(=O)[C@H](C)NC(=O)[C@H](CCC(=O)O)NC(=O)CNC(=O)[C@H](CCC(=O)O)NC(=O)[C@H](CC(C)C)NC(=O)[C@](C)(Cc1ccccc1)NC(=O)[C@H](CO)NC(=O)[C@H](CO)NC(=O)[C@@H](NC(=O)[C@H](CC(=O)O)NC(=O)[C@H](CO)NC(=O)[C@@H](NC(=O)[C@](C)(Cc1ccccc1)NC(=O)[C@H](CO)NC(=O)CNC(=O)[C@H](CCC(=O)O)NC(=O)C(C)(C)NC(=O)[C@@H](N)Cc1c[nH]cn1)[C@@H](C)O)C(C)C)C(=O)N[C@@H](C)C(=O)N[C@@](C)(Cc1ccccc1)C(=O)N[C@H](C(=O)N[C@H](C(=O)N[C@@H](CCCCN)C(=O)NCC(=O)NCC(N)=O)C(C)C)C(C)C` [compound 40], for which the EC50 in test [1] (setting [4]) was at least 85 nM; in test [1] (setting [5]), at least 26 nM; in test [2] (setting [6]), 1800 pM; in test [2] (setting [7]) it was 570 pM; in test [2] (setting [8]) it was 1170 pM; in test [3] (setting [9]), at least 85 nM. The EC50 in test [3] (setting [10]) is at least 26 nM.
As for `CCCCCCCCCCCCCCCC(=O)N[C@@H](CCC(=O)NCCCC[C@H](NC(=O)[C@H](C)NC(=O)[C@H](C)NC(=O)[C@H](CCC(=O)O)NC(=O)CNC(=O)[C@H](CCC(=O)O)NC(=O)[C@H](CC(C)C)NC(=O)[C@](C)(Cc1ccccc1)NC(=O)[C@H](CO)NC(=O)[C@H](CO)NC(=O)[C@@H](NC(=O)[C@H](CC(=O)O)NC(=O)[C@H](CO)NC(=O)[C@@H](NC(=O)[C@](C)(Cc1ccccc1)NC(=O)[C@H](CO)NC(=O)CNC(=O)[C@H](CCC(=O)O)NC(=O)C(C)(C)NC(=O)[C@@H](N)Cc1c[nH]cn1)[C@@H](C)O)C(C)C)C(=O)N[C@@H](CCC(=O)O)C(=O)N[C@@](C)(Cc1ccccc1)C(=O)N[C@H](C(=O)N[C@@H](C)C(=O)N[C@@](C)(Cc1ccccc1)C(=O)N[C@H](C(=O)N[C@H](C(=O)N[C@@H](CCCCN)C(=O)NCC(=O)NCC(N)=O)C(C)C)C(C)C)[C@@H](C)CC)C(=O)O` [compound 41], the EC50 was at least 94 nM in test [1] (setting [4]); at least 28 nM in test [1] (setting [5]); 240 pM in test [2] (setting [6]); 51 pM in test [2] (setting [7]); 147 pM in test [2] (setting [8]); at least 94 nM in test [3] (setting [9]). In addition, the EC50 in test [3] (setting [10]) was at least 28 nM.
